Our source for the Activity, IC50 and relative binding affinity (RBA) values is ChEMBL document CHEMBL1944525, “Synthesis and activity of folate conjugated didemnin B for potential treatment of inflammatory diseases” (Bioorg Med Chem Lett, 2012).

pIC50: −log10 of the molar value.

For assay [1], the system named is RAW264.7. Briefly: Cytotoxicity against mouse RAW264.7 cells incubated for 5 hrs followed by replacement with fresh media measured after 72 hrs by XTT assay. Format: functional, cell-based.
In assay [2] the test system is RAW264.7. Briefly: Displacement of [3H]-folic acid from folate receptor on mouse RAW264.7 cells assessed as relative binding after 1 hr by liquid scintillation counting. It is filed as cell-based.
Assay [3] deals with RAW264.7. Nature of the assay: Antiinflammatory activity in mouse RAW264.7 cells assessed as inhibition of LPS-induced TNFalpha production after 72 hrs […]. It is filed as functional, cell-based. Conditions: RAW264.7, 72 h.

Regarding `CC[C@H](C)[C@H]1NC(=O)[C@@H](NC(=O)[C@@H](CC(C)C)N(C)C(=O)[C@H]2CCCN2C(=O)C(C)OC(=O)OCCSSC[C@H](NC(=O)[C@H](CC(=O)O)NC(=O)[C@H](CC(=O)O)NC(=O)[C@H](CCCNC(=N)N)NC(=O)[C@H](CC(=O)O)NC(=O)CC[C@H](NC(=O)c2ccc(NCc3cnc4nc(N)[nH]c(=O)c4n3)cc2)C(=O)O)C(=O)O)[C@@H](C)OC(=O)[C@H](Cc2ccc(OC)cc2)N(C)C(=O)[C@@H]2CCCN2C(=O)[C@H](CC(C)C)NC(=O)[C@@H](C)C(=O)[C@H](C(C)C)OC(=O)C[C@@H]1O` (some centres undefined) [FOLATE DIDEMNIN B], in the assay with RAW264.7 [1], the Activity result was “Dose-dependent effect” and the pIC50 is 7.89. In addition, the relative binding affinity (RBA) in the assay on RAW264.7 [2] was found to be 0.18. The pIC50 with RAW264.7 [3] was 8.30.
